Assay results taken from PubChem BioAssay (NCI).
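Results reflect a 48-hour exposure of cells in 96-well plates to compound at five concentrations. Here, GI50 denotes the concentration required for 50% inhibition of growth. At the TGI there is no net growth.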

Columns and labels:
Assay in all cases: growth of human tumour cells (NCI), 48 h
[1] = system: TK-10 renal
[2] = system: 786-0 renal
[3] = system: SK-MEL-28 melanoma
[4] = system: LOX IMVI melanoma
[5] = system: CCRF-CEM leukemia
[6] = system: HCT-116 colon
[7] = system: HL-60(TB) leukemia
[8] = system: MCF7 breast
[9] = system: NCI-H23 lung
[10] = system: MALME-3M melanoma

SMILES | GI50 [1] | TGI [1] | GI50 [2] | TGI [2] | GI50 [3] | TGI [3] | GI50 [4] | TGI [4] | GI50 [5] | TGI [5] | GI50 [6] | TGI [6] | GI50 [7] | TGI [7] | GI50 [8] | TGI [8] | GI50 [9] | TGI [9] | GI50 [10] | TGI [10]
C[C@@H](NC(=O)[C@@H](CC(=O)N1CCC(N2CCCCC2)CC1)N1C(=O)[C@@H](N2C(=O)OC[C@@H]2c2ccccc2)[C@H]1/C=C/c1cccc(Cl)c1)c1ccccc1 | 1.92 µM | 4.76 µM | 1.88 µM | 3.95 µM | 1.8 µM | 3.63 µM | 1.46 µM | 3.06 µM | 2.73 µM | 7.93 µM | 1.97 µM | 4.11 µM | 2.21 µM | 4.87 µM | 2.04 µM | 5.36 µM | 3.85 µM | 15.5 µM | 1.68 µM | 3.3 µM
CCN(CC)CCCC(C)Nc1c2ccc(Cl)cc2nc2cc(OC)c(OC)cc12 (centres undefined) | 1.99 µM | 5.04 µM | 1.46 µM | 5.57 µM | 1.72 µM | 3.37 µM | 1.23 µM | 2.64 µM | 1.52 µM | 10.3 µM | 0.861 µM | 4.28 µM | 2.81 µM | 9.31 µM | 0.656 µM | 2.9 µM | 1.48 µM | 3.25 µM | 1.86 µM | 3.52 µM
O=c1oc(-c2ccccc2)cc2cccc(O)c12 | 9.45 µM | 39.8 µM | 28.7 µM | > 76.9 µM | > 100 µM | > 100 µM | 29.7 µM | > 100 µM | > 100 µM | > 100 µM | 19.8 µM | 45.2 µM | 63.5 µM | > 100 µM | > 28 µM | > 100 µM | 19.6 µM | 61.5 µM | 69.4 µM | > 100 µM
Cc1cc([N+](=O)[O-])ccc1NS(=O)(=O)c1cc(Cl)ccc1Cl | 3.54 µM | 75.2 µM | 3.03 µM | 22.6 µM | 5.17 µM | > 94.6 µM | 3.44 µM | 13 µM | 3.47 µM | > 72.4 µM | 2.85 µM | 11.9 µM | 3.13 µM | 12.8 µM | 2.51 µM | > 49.4 µM | 3 µM | 9.99 µM | 2.33 µM | 6.83 µM
CC(=O)OCc1ccc(O)c(C=O)c1 |  | > 100 µM |  | > 100 µM |  | > 100 µM |  | > 100 µM |  | > 100 µM |  | > 100 µM |  | > 100 µM |  | > 100 µM |  | > 100 µM |  | > 100 µM
COc1ccc(-c2cn(-c3cccc(C(=O)/C=C/c4ccc(O)c(OC)c4)c3)c(=O)[nH]2)cc1 | 7.38 µM | > 85.4 µM | 4.32 µM | 24.5 µM | 1.99 µM | 4.51 µM | 2.21 µM | 6.02 µM | 1.19 µM | 5.81 µM | 1.89 µM | 4.87 µM | 2.5 µM | 16 µM | 2.66 µM | 22 µM | 3.57 µM | 25.2 µM | 3.98 µM | 24.4 µM
O=C(NCCN1CCC(O)CC1)c1cc2c(o1)C(=O)c1ccccc1C2=O | 2 µM | 3.59 µM | 1.44 µM | 2.96 µM | 0.549 µM | 1.74 µM | 0.145 µM | 0.337 µM | 0.578 µM | > 30.1 µM | 0.301 µM | 1.05 µM | 0.282 µM | 1.02 µM | 0.137 µM | 0.338 µM | 0.0536 µM | 0.257 µM | 0.0272 µM | 0.0885 µM
N#C/C(=C\Nc1ccccn1)C(=O)c1ccco1 |  | > 100 µM |  | > 100 µM |  | > 100 µM |  | > 100 µM |  |  |  | > 100 µM |  | > 100 µM |  | > 100 µM |  | > 100 µM |  | > 100 µM
CSc1n(Cc2ccc3ccccc3c2)c(C)c[n+]1Cc1ccc2ccccc2c1 | 1.41 µM | 2.88 µM | 1.53 µM | 2.97 µM | 0.854 µM | 2.19 µM | 0.591 µM | 1.9 µM | 0.571 µM | 2.31 µM | 0.615 µM | 1.86 µM | 0.319 µM | 1.12 µM | 0.505 µM | 1.88 µM | 0.385 µM | 1.64 µM | 0.472 µM | 1.73 µM
CCn1c2ccc(C(=O)CCCN(C)C)cc2c2cc(C(=O)CCCN(C)C)ccc21 |  | 13.2 µM |  | 2.82 µM |  | 18.3 µM |  | 4.76 µM |  | 10.1 µM |  | 11.6 µM |  | 3.78 µM |  | 13.1 µM |  | 4.29 µM |  | 11 µM
